Assay: wn = mass fraction of the nth substance listed
Conditions: 101 kPa, Liquid; for viscosity: Capillary tube (Ostwald / Ubbelohde) method; for speed of sound: Linear variable-path acoustic interferometer; for mass density: Pycnometric method

OC[C@H]1O[C@@](CO)(O[C@H]2O[C@H](CO)[C@@H](O)[C@H](O)[C@H]2O)[C@@H](O)[C@@H]1O [D-sucrose] + O
Conditions	mass density [kg/m3]	speed of sound [m/s]	viscosity [mPa·s]
293.15 K, w1 = 0.05	1018.91	1501.4	1.214
293.15 K, w1 = 0.1	1039.28	1522.5	1.376
293.15 K, w1 = 0.15	1060.31	1533.4	1.609
293.15 K, w1 = 0.2	1082.73	1545.2	1.932
298.15 K, w1 = 0.05	1017.19	1516.5	1.011
298.15 K, w1 = 0.1	1037.45	1531.8	1.183
298.15 K, w1 = 0.15	1058.49	1543.6	1.418
298.15 K, w1 = 0.2	1080.77	1555.3	1.756
303.15 K, w1 = 0.05	1015.46	1526.6	0.9129
303.15 K, w1 = 0.1	1035.61	1541.8	1.061
303.15 K, w1 = 0.15	1056.67	1553	1.252
303.15 K, w1 = 0.2	1078.8	1564.6	1.549
308.15 K, w1 = 0.05	1013.72	1537.8	0.8285
308.15 K, w1 = 0.1	1033.76	1551.6	0.9614
308.15 K, w1 = 0.15	1054.84	1562	1.129
308.15 K, w1 = 0.2	1076.84	1575.2	1.396
313.15 K, w1 = 0.05	1011.98	1547.7	0.7457
313.15 K, w1 = 0.1	1031.93	1561.8	0.8804
313.15 K, w1 = 0.15	1053.01	1570.8	1.025
313.15 K, w1 = 0.2	1074.88	1583.9	1.25
318.15 K, w1 = 0.05	1010.23	1557.2	0.6946
318.15 K, w1 = 0.1	1030.09	1570.9	0.8179
318.15 K, w1 = 0.15	1051.2	1579.2	0.9402
318.15 K, w1 = 0.2	1072.93	1592.8	1.15

From the NIST ThermoML archive (doi:10.1016/j.jct.2012.11.001)
